Measured values published in ChEMBL document CHEMBL1909046, “DrugMatrix in vitro pharmacology data”.

Assays:
[1] = biological target: T1, Muscarinic acetylcholine receptor M2 (Homo sapiens, UniProt P08172); assay type: cell membranes, CHO-K1, Membrane; conditions: cho-k1; further: in other assays of this panel Not Active means under 50% inhibition at 10 µM
T1 sequence (P08172 whole entry): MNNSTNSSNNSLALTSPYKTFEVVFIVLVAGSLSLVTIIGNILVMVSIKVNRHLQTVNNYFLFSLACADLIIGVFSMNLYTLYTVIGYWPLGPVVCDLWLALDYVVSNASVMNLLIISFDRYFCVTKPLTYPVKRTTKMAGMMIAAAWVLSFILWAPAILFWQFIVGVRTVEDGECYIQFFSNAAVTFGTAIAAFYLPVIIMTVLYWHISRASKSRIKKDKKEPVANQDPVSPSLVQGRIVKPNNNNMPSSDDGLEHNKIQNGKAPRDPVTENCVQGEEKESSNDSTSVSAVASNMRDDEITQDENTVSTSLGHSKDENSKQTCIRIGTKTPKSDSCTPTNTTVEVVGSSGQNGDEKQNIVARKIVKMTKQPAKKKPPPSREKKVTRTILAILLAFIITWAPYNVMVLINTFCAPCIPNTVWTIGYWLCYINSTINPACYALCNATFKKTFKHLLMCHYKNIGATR

[2] = biological target: Cytochrome P450 2E1 (Homo sapiens, UniProt P05181); conditions: bti-tn-5b1-4; further: in other assays of this panel Not Active means under 50% inhibition at 10 µM
Chain of Cytochrome P450 2E1 (P05181 whole entry): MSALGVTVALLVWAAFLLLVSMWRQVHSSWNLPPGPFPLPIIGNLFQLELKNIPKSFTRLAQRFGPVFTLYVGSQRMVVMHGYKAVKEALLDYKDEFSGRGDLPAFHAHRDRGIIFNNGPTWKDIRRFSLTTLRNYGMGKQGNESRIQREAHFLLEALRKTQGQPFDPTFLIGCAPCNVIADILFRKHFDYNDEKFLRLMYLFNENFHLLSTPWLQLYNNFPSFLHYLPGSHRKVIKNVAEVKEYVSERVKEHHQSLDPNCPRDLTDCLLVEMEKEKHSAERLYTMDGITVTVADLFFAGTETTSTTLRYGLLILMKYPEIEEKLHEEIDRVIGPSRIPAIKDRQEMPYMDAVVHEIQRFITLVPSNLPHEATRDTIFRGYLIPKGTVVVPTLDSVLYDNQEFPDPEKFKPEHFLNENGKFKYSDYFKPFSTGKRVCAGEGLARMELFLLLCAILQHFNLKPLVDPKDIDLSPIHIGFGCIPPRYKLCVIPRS

[3] = biological target: T2, Cytochrome P450 2A6 (Homo sapiens, UniProt P11509); conditions: bti-tn-5b1-4; further: in other assays of this panel Not Active means under 50% inhibition at 10 µM
T2 sequence (P11509 whole entry): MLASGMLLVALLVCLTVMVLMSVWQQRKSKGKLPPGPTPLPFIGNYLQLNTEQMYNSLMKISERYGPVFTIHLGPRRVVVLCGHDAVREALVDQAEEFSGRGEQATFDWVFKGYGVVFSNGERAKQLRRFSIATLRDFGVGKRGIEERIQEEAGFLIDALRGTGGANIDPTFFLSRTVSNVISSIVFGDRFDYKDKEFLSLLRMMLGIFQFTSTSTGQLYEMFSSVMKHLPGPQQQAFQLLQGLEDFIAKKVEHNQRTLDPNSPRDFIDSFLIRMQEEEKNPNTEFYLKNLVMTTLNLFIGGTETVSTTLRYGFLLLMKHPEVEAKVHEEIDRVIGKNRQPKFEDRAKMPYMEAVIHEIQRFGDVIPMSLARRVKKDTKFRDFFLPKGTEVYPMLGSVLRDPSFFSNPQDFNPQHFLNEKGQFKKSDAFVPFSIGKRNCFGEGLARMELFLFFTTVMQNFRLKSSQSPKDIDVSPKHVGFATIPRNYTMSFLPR

[4] = DRUGMATRIX: Interleukin IL-1 radioligand binding (ligand: [125I] interleukin 1beta); assay type: cell membranes, Membrane; conditions: nih3t3; Not Active = under 50% inhibition at 10 µM
[5] = biological target: T3, Cathepsin G (Homo sapiens, UniProt P08311); assay type: tissue-based; conditions: neutrophil;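 further: inhibition of Cathepsin G enzyme activity, tested on an AMC-conjugated peptide substrate; in other assays of this panel Not Active means under 50% inhibition at 10 µM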
T3 sequence (P08311 whole entry): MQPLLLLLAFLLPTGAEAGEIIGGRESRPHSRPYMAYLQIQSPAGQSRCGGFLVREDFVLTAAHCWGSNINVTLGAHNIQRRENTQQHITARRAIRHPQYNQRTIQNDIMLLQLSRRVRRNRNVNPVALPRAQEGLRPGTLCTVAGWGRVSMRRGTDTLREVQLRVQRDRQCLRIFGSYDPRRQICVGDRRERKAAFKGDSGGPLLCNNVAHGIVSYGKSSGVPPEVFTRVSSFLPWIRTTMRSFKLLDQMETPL

[6] = DRUGMATRIX: Potassium Channel [KATP] radioligand binding (ligand: [3H] Glyburide); assay type: cell membranes, Membrane; conditions: hit-t15; Not Active = under 50% inhibition at 10 µM
[7] = biological target: T4, Muscarinic acetylcholine receptor M4 (Homo sapiens, UniProt P08173); assay type: cell membranes, CHO-K1, Membrane; conditions: cho-k1; further: in other assays of this panel Not Active means under 50% inhibition at 10 µM
T4 sequence (P08173 whole entry): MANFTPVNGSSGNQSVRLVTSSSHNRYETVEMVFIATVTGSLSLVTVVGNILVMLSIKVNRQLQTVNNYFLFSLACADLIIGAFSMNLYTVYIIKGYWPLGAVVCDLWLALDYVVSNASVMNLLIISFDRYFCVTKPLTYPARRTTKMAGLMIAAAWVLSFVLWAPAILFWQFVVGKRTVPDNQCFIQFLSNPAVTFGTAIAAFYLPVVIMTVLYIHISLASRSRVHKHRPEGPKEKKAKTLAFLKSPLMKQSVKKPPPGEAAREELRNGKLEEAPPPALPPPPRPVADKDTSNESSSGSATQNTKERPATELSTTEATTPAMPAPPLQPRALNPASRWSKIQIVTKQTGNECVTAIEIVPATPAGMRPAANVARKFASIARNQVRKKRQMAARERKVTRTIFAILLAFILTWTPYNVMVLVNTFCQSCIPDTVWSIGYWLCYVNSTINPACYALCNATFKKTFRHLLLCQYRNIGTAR

CC(=O)O[C@]1(C(C)=O)CC[C@H]2[C@@H]3C=C(Cl)C4=CC(=O)[C@@H]5C[C@@H]5[C@]4(C)[C@H]3CC[C@@]21C [CYPROTERONE ACETATE]
Not Active: IC50 [1] | IC50 [2] | Ki [2] | IC50 [3] | Ki [3] | IC50 [4] | Ki [4] | IC50 [5] | IC50 [6] | Ki [6] | IC50 [7]

Nc1nc(N)nc(NC2CC2)n1 [CYROMAZINE]
Not Active: IC50 [1] | IC50 [2] | Ki [2] | IC50 [3] | Ki [3] | IC50 [4] | Ki [4] | IC50 [5] | IC50 [6] | Ki [6] | IC50 [7]

C#C[C@]1(O)CC[C@H]2[C@@H]3CCC4=Cc5oncc5C[C@]4(C)[C@H]3CC[C@@]21C [DANAZOL]
Not Active: IC50 [1] | IC50 [2] | Ki [2] | IC50 [3] | Ki [3] | IC50 [4] | Ki [4] | IC50 [5] | IC50 [6] | Ki [6] | IC50 [7]

CCN[C@@H](C)Cc1cccc(C(F)(F)F)c1 [DEXFENFLURAMINE]
Not Active: IC50 [1] | IC50 [2] | Ki [2] | IC50 [3] | Ki [3] | IC50 [4] | Ki [4] | IC50 [5] | IC50 [6] | Ki [6] | IC50 [7]

C[C@H](C(=O)O)c1cccc(C(=O)c2ccccc2)c1 [DEXKETOPROFEN]
Not Active: IC50 [1] | IC50 [2] | Ki [2] | IC50 [3] | Ki [3] | IC50 [4] | Ki [4] | IC50 [5] | IC50 [6] | Ki [6] | IC50 [7]

CN1C(=O)CN=C(c2ccccc2)c2cc(Cl)ccc21 [DIAZEPAM]
Not Active: IC50 [1] | IC50 [2] | Ki [2] | IC50 [3] | Ki [3] | IC50 [4] | Ki [4] | IC50 [5] | IC50 [6] | Ki [6] | IC50 [7]

CN1C[C@H](C(=O)N[C@]2(C)O[C@@]3(O)[C@@H]4CCCN4C(=O)[C@H](Cc4ccccc4)N3C2=O)C[C@@H]2c3cccc4[nH]cc(c34)C[C@H]21 [DIHYDROERGOTAMINE]
Not Active: IC50 [1] | IC50 [2] | Ki [2] | IC50 [3] | Ki [3] | IC50 [4] | Ki [4] | IC50 [5] | IC50 [6] | Ki [6] | IC50 [7]

Cc1c(N(C)CS(=O)(=O)[O-])c(=O)n(-c2ccccc2)n1C.[Na+] [DIPYRONE SODIUM]
Not Active: IC50 [1] | IC50 [2] | Ki [2] | IC50 [3] | Ki [3] | IC50 [4] | Ki [4] | IC50 [5] | IC50 [6] | Ki [6] | IC50 [7]

CC(CCc1ccc(O)cc1)NCCc1ccc(O)c(O)c1 (stereo not drawn) [DOBUTAMINE]
Not Active: IC50 [1] | IC50 [2] | Ki [2] | IC50 [3] | Ki [3] | IC50 [4] | Ki [4] | IC50 [5] | IC50 [6] | Ki [6] | IC50 [7]

CCn1cc(C(=O)O)c(=O)c2cc(F)c(N3CCNCC3)nc21 [ENOXACIN]
Not Active: IC50 [1] | IC50 [2] | Ki [2] | IC50 [3] | Ki [3] | IC50 [4] | Ki [4] | IC50 [5] | IC50 [6] | Ki [6] | IC50 [7]

CCC(=O)O[C@H]1[C@H](O[C@@H]2[C@@H](C)[C@H](O[C@H]3C[C@@](C)(OC)[C@@H](O)[C@H](C)O3)[C@@H](C)C(=O)O[C@H](CC)[C@@](C)(O)[C@H](O)[C@@H](C)C(=O)[C@H](C)C[C@@]2(C)O)O[C@H](C)C[C@@H]1N(C)C [ERYTHROMYCIN PROPIONATE]
Not Active: IC50 [1] | IC50 [2] | Ki [2] | IC50 [3] | Ki [3] | IC50 [4] | Ki [4] | IC50 [5] | IC50 [6] | Ki [6] | IC50 [7]

C=C(CC)C(=O)c1ccc(OCC(=O)O)c(Cl)c1Cl [ETHACRYNIC ACID]
Not Active: IC50 [1] | IC50 [2] | Ki [2] | IC50 [3] | Ki [3] | IC50 [4] | Ki [4] | IC50 [5] | IC50 [6] | Ki [6] | IC50 [7]

C#C[C@]1(O)CC[C@H]2[C@@H]3CCc4cc(O)ccc4[C@H]3CC[C@@]21C [ETHINYL ESTRADIOL]
Not Active: IC50 [1] | IC50 [2] | Ki [2] | IC50 [3] | Ki [3] | IC50 [4] | Ki [4] | IC50 [5] | IC50 [6] | Ki [6] | IC50 [7]
